Results from ChEMBL document CHEMBL6109078, “Pyrylium derivatives as outer membrane permeabilizers against MDR gram-negative bacteria via multi-target mode of action” (Eur J Med Chem, 2025).
pKd: −log10 of the molar value. Calls of active or inactive are those of the source. The rule behind the calls is not given here.

Key:
Escherichia coli [1] = experiment: Synergistic antibacterial activity against Escherichia coli ATCC 25922 infected in Galleria mellonella larvae assessed as survival rate of larvae at 50 microg/ml in presence of polymyxin B relative to control; format: functional
Acinetobacter baumannii [2] = experiment: Antibacterial activity against Acinetobacter baumannii ATCC 19606 infected in Galleria mellonella larvae assessed as survival rate of larvae at 50 microg/ml measured after 96 hrs relative to control; format: functional
Acinetobacter baumannii [3] = experiment: Synergistic antibacterial activity against multi-drug resistant Acinetobacter baumannii clinical isolate 14 assessed as fractional inhibitory concentration index in presence of polymyxin B by checkerboard assay; format: functional
Lipopolysaccharide (LPS) [4] = experiment: Binding affinity to LPS (unknown origin) assessed as dissociation constant by BLI analysis
Escherichia coli [5] = experiment: Antibacterial activity against Escherichia coli ATCC 25922 assessed as inhibition of bacterial growth by measuring fold change in MIC incubated for 16 to 18 hrs in presence of LPS; format: functional; conditions: time 16-18 hrs
Lipopolysaccharide (LPS) [6] = experiment: Binding affinity to LPS (unknown origin) by BLI analysis; conditions: dose 3.13-25 µg/ml
Bacteria [7] = experiment: Inhibition of His-tagged His-tagged LptA/LptC (unknown origin) protein-protein interaction extracted from Escherichia coli BL21 (DE3) cells by BLI analysis; conditions: dose 0.39-1.56 µg/ml
Lipopolysaccharide (LPS) [8] = experiment: Binding affinity to LPS (unknown origin) assessed as exothermic heat release at 100 mM by ITC analysis; conditions: time <= 40.0 min
Escherichia coli [9] = experiment: Antibacterial activity against Escherichia coli ATCC 25922 infected in Galleria mellonella larvae assessed as survival rate of larvae at 50 microg/ml relative to control; format: functional
Acinetobacter baumannii [10] = experiment: Synergistic antibacterial activity against Acinetobacter baumannii ATCC 19606 infected in Galleria mellonella larvae assessed as survival rate of larvae at 50 microg/ml measured after 96 hrs in presence of polymyxin B relative to control; format: functional
Bacteria [11] = experiment: Binding affinity to His-tagged LptC (unknown origin) extracted from Escherichia coli BL21 (DE3) cells by BLI analysis

CCN(CC)c1ccc(/C=C/c2cc(C(C)(C)C)[o+]c(C(C)(C)C)c2)cc1.O=S(=O)([O-])C(F)(F)F
survival at 50 µg/mL (Escherichia coli [1]): 70%
survival at 50 µg/mL (Acinetobacter baumannii [2]): 10%
fractional inhibitory concentration index (FICI) (Acinetobacter baumannii [3]): 0.141
pKd (Lipopolysaccharide (LPS) [4]): 5.40
fold change (FC) (Escherichia coli [5]): 2
Activity (Lipopolysaccharide (LPS) [6]): Dose-dependent-effect
inhibition (Bacteria [7]): Dose-dependent-effect
Activity (Lipopolysaccharide (LPS) [8]): Time-dependent-effect
survival at 50 µg/mL (Escherichia coli [9]): 20%
survival at 50 µg/mL (Acinetobacter baumannii [10]): 80%

CC(C)(C)c1cc(/C=C/c2ccc(N3CCCC3)cc2)cc(C(C)(C)C)[o+]1.O=S(=O)([O-])C(F)(F)F
fractional inhibitory concentration index (FICI) (Acinetobacter baumannii [3]): 0.313
fold change (FC) (Escherichia coli [5]): 2

CN1CCOc2cc(/C=C/c3cc(C(C)(C)C)[o+]c(C(C)(C)C)c3)ccc21.O=S(=O)([O-])C(F)(F)F
Activity (Bacteria [11]): inactive
